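Dose response: 5 concentrations. Exposure: 48 h. Format: 96-well plates. Endpoint: linear interpolation; highest concentration if not reached. TGI is the concentration that stops growth completely.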
Columns and labels:
Assay in all cases: NCI anticancer screen, dose series, 48 h
[1] = tested on: NCI-H226 lung
[2] = tested on: NCI-H522 lung
[3] = tested on: MDA-MB-435
[4] = tested on: SR leukemia
[5] = tested on: HCC-2998 colon
[6] = tested on: SK-OV-3 ovarian
[7] = tested on: HL-60(TB) leukemia
[8] = tested on: HOP-92 NSCLC
[9] = tested on: HOP-62 NSCLC
[10] = tested on: NCI/ADR-RES ovarian
[11] = tested on: RXF 393 renal
[12] = tested on: UO-31 renal
[13] = tested on: MDA-N
[14] = tested on: CAKI-1 renal
[15] = tested on: M14 melanoma
[16] = tested on: LOX IMVI melanoma
[17] = tested on: T-47D breast
[18] = tested on: MALME-3M melanoma
[19] = tested on: SF-295 CNS
[20] = tested on: HCT-15 colon
[21] = tested on: 786-0 renal
[22] = tested on: BT-549 breast
[23] = tested on: SW-620 colon
[24] = tested on: MOLT-4 leukemia
[25] = tested on: A549 NSCLC
[26] = tested on: SK-MEL-2 melanoma
[27] = tested on: A498 renal
[28] = tested on: UACC-62 melanoma
[29] = tested on: NCI-H460 lung
[30] = tested on: OVCAR-5 ovarian
[31] = tested on: MDA-MB-231 breast
[32] = tested on: ACHN renal
[33] = tested on: HS 578T breast
[34] = tested on: OVCAR-4 ovarian
[35] = tested on: MCF7 breast
[36] = tested on: SK-MEL-5 melanoma
[37] = tested on: SK-MEL-28 melanoma
[38] = tested on: KM12 colon
[39] = tested on: K-562 leukemia
[40] = tested on: IGROV1 ovarian
[41] = tested on: DU-145 prostate
[42] = tested on: OVCAR-8 ovarian
[43] = tested on: EKVX NSCLC
[44] = tested on: UACC-257 melanoma
[45] = tested on: SNB-75 CNS
[46] = tested on: SF-268 CNS
[47] = tested on: SN12C renal
[48] = tested on: RPMI-8226 leukemia
[49] = tested on: U251 CNS
[50] = tested on: TK-10 renal
[51] = tested on: HT29 colon
[52] = tested on: CCRF-CEM leukemia
[53] = tested on: SF-539 CNS
[54] = tested on: PC-3 prostate
[55] = tested on: NCI-H23 lung
[56] = tested on: SNB-19 CNS
[57] = tested on: OVCAR-3 ovarian
[58] = tested on: COLO 205 colon
[59] = tested on: HCT-116 colon

Structure (SMILES): CC(C)Oc1c(N(Cc2ccccc2)c2ccccc2C2SCCCS2)c(=O)c1=O
- TGI [1]: > 28.2 µM
- TGI [2]: 4.87 µM
- TGI [3]: 10.3 µM
- TGI [4]: > 100 µM
- TGI [5]: 18.5 µM
- TGI [6]: > 73.4 µM
- TGI [7]: > 100 µM
- TGI [8]: > 83.3 µM
- TGI [9]: > 100 µM
- TGI [10]: 4.7 µM
- TGI [11]: > 100 µM
- TGI [12]: > 100 µM
- TGI [13]: > 30.7 µM
- TGI [14]: > 100 µM
- TGI [15]: 19.3 µM
- TGI [16]: > 100 µM
- TGI [17]: > 100 µM
- TGI [18]: > 100 µM
- TGI [19]: 5.67 µM
- TGI [20]: > 56.5 µM
- TGI [21]: > 100 µM
- TGI [22]: > 100 µM
- TGI [23]: 8.2 µM
- TGI [24]: > 100 µM
- TGI [25]: > 100 µM
- TGI [26]: 20.1 µM
- TGI [27]: > 85.1 µM
- TGI [28]: > 100 µM
- TGI [29]: > 60.8 µM
- TGI [30]: > 100 µM
- TGI [31]: > 56 µM
- TGI [32]: > 100 µM
- TGI [33]: 32.6 µM
- TGI [34]: > 100 µM
- TGI [35]: > 100 µM
- TGI [36]: > 100 µM
- TGI [37]: > 100 µM
- TGI [38]: 35.9 µM
- TGI [39]: > 100 µM
- TGI [40]: > 32.8 µM
- TGI [41]: > 100 µM
- TGI [42]: > 60.7 µM
- TGI [43]: > 100 µM
- TGI [44]: > 100 µM
- TGI [45]: 7.22 µM
- TGI [46]: > 100 µM
- TGI [47]: > 100 µM
- TGI [48]: > 100 µM
- TGI [49]: > 100 µM
- TGI [50]: > 100 µM
- TGI [51]: 6.78 µM
- TGI [52]: > 100 µM
- TGI [53]: 8 µM
- TGI [54]: 35.7 µM
- TGI [55]: > 47.5 µM
- TGI [56]: > 100 µM
- TGI [57]: 7.07 µM
- TGI [58]: 21.5 µM
- TGI [59]: 59.3 µM

From PubChem BioAssay (NCI)
